Test results: paper PMC11477209, “Toxicological Evaluation of Kaempferol and Linearolactone as Treatments for Amoebic Liver Abscess Development in Mesocricetus auratus” (International Journal of Molecular Sciences, 2024)
≈ marks a conversion by molar mass, not a printed value. Like-named read-outs stand apart in the source and are kept apart here.

Key:
[1] = system: E. histolytica trophozoites; settings: 48 h; ref [10]; read-out: IC50 E. histolytica trophozoites; cited from earlier work
[2] = system: E. histolytica trophozoites (amoebic liver abscess); assay: Amoebic liver abscess (ALA) model, antiparasitic protocol; type: in vivo, Mesocricetus auratus; settings: for Edges / Leukocyte infiltrate / Liquid / Morphology: ALA characteristics; for ALA Volume: MRI; for ALA Volume / ALA Weight: i.p. 4 days; for ALA Weight: KP 5, LL 10, MTZ 10 mg/kg/day
Text: M. auratus was used as an animal model because the hamster is naturally susceptible to infection by E. histolytica and can develop amoebic colitis or extraintestinal complications such as an ALA [71]. In this context, the hamster can be used to search for new alternative therapeutic agents against amoebiasis. The hamsters were acquired from Charles River Laboratories Inc. (Wilmington, MA, USA) in 2017 by Centro de Investigación y de Estudios Avanzados del Instituto Politécnico Nacional ([…]-IPN). […] Male hamsters (sexually mature and homozygous) weighing 95 ± 5 g and ≈10 weeks old were selected for the experiments. They were maintained in aseptic conditions at 25 ± 1 °C, 50 ± 3% humidity, a 12 h photoperiod, and ad libitum access to a standard diet (LabDiet; Richmond, IN, USA) and water (Figure 5A). The hamsters were housed in polycarbonate boxes (five per box), with an American Iron and Steel Institute (AISI) lid and wood shavings as bedding, in a controlled room of the Animal Production and Experimentation Unit (UPEAL) from […]-IPN (Figure 5A). Additionally, the health state of the hamsters and their adaptation to the new laboratory conditions were evaluated for 15 days to decrease their stress and anxiety levels. This study was carried out according to the Official Mexican Regulations (NOM-062-ZOO-1999) and NC3Rs ARRIVE [60, 72]. The protocol was approved by the Institutional Animal Care and Use Committee (Reg. No. 0183-16). Finally, the hamsters were not subjected to any previous experimental procedure or any additional treatment before beginning the experimental procedures (see File S1, NC3Rs ARRIVE Guidelines Checklist). Compounds that are prohibited and/or not recommended for use in animals by the American Veterinary Medical Association (Guidelines for the Euthanasia of Animals) were not used.
These experiments were performed with three independent biological replicates. For each replicate, twenty-five hamsters were randomly distributed (simple type) into five experimental groups (five animals per group). The sample size was determined based on the Organization for Economic Cooperation and Development (OECD) recommendations that establish the minimum number of individuals required for the tests so as not to sacrifice animals unnecessarily. Laparotomy was performed in aseptic conditions by using depilation, iodine solution, as well as sterile field cloths. Subsequently, an intra-hepatic puncture was made to deliver 1.5 × 10^6 virulent E. histolytica trophozoites in 100 μL of 1× PBS into the left hepatic lobe for ALA induction (Figure 5A-3). The injection site was immediately covered by applying a gel foam pad to maintain hemostasis. The abdominal layers were sutured discontinuously by single vertical stitches using Vicryl synthetic absorbable suture with a triangular pointed half circle needle. Irregular edges or folds in the surgical wound were eliminated to avoid tissue devitalization or possible infections. The development of a hepatic ALA was monitored for 4 days (Figure 5A-4).
(Figure 5B). The compounds were administered by the i.p. route because the peritoneal cavity presents rapid fluid absorption into the bloodstream, and initial biotransformation by the gastrointestinal tract is avoided. […] The hamsters were evaluated 24 h post-treatment to detect any signs of discomfort/pain or toxicity. The humane endpoint criteria used in this study were >20% body weight loss overnight, cachexia, recumbence, lethargy, respiratory distress, inability to reach food and water, lack of grooming, and ulceration around the surgical site, among others. Additionally, the weight of hamsters was determined at the beginning and end of the experiment with an electronic bascule (CS200, Ohaus; Parsippany, NJ, USA), and the ALA volume was calculated based on imaging (Figure 5B-1). […]

[3] = system: E. histolytica trophozoites (virulent HM-1 strain); assay: microbe, parasite or virus in culture; settings: Entamoeba histolytica, 48 h, read-out: IC50 HM-1, 48 h, flow cytometry
[4] = in vivo
Method: After blood samples were obtained, the hamsters were sacrificed with a lethal dose of sodium pentobarbital, followed by a cervical fracture. They were mounted on a dissecting board for the necropsy. A complete mid-laparotomy was performed to remove the lungs, spleen, heart, liver, and kidneys. An excisional biopsy was performed to recover the ALA lesions for morphometric analysis. The organs and ALA lesions were rinsed with 1× PBS, weighed, and adherent tissue was removed. […] Later, the inclusion protocol was performed to obtain histological sections (3 μm thick) with a rotatory microtome (RM2125-RTS, Leica; Wetzlar, Germany). Tissue slices were stained with hematoxylin-eosin (Merck; Rahway, NJ, USA), mounted on coverslips with Entellan^TM-New (Merck; Rahway, NJ, USA), and observed with optical microscopy (Eclipse 80i, Nikon; Tokio, Japan).

[5] = system: E. histolytica trophozoites; assay: Cell morphology by confocal microscopy (actin); type: cell-based, Entamoeba histolytica; settings: phalloidin-rhodamine, treatment with IC50
Method: Then, the culture medium was removed, and the adhered cells were fixed with 4% paraformaldehyde for 1 h at 37 °C. The samples were washed three times with 1× PBS and incubated with 1:50 phalloidin–rhodamine (R415, Invitrogen; Carlsbad, CA, USA) for 1 h at 37 °C. Finally, the cells were washed, mounted with VectaShield/DAPI medium (Vector Laboratories; Newark, CA, USA), and observed with a confocal microscope (LSM-700, Zeiss; Oberkochen, Germany).

[6] = system: CHO-K1 cells; assay: MTT cytotoxicity assay; type: cell-based, Chinese hamster; settings: for IC50: Cricetulus griseus, read-out: IC50 CHO-K1
[7] = system: E. histolytica trophozoites (virulent HM-1 strain)
[8] = system: BEAS-2B cells; assay: MTT cytotoxicity assay; type: cell-based, human; settings: 24 h; for IC50: Homo sapiens, BEAS-2B
[9] = for Survival rate: ALA hamsters, i.p. 4 days; for Toxicity signs: in vivo, ip
[10] = Paraclinical analysis (serum biochemistry, hematic biometry) in ALA hamsters; type: in vivo, Mesocricetus auratus
Method: Serum was obtained by centrifugation at 3500 rpm and frozen at −70 °C until analysis. Hematic biometry was performed in a hematology autoanalyzer system (BC-2300, Mindray; Shenzhen, China), and biochemical parameters were made on an automatic medical system (Prestige 24i, Tokyo Boeki; Kanagawa, Japan).

[11] = Chinese hamster (CHO-K1) and human (BEAS-2B)
[12] = 48 h, MTZ 0.16, KP 31.6, LL 15.6 μg/mL
[13] = blood, ALA hamsters, i.p. 4 days

O=c1c(O)c(-c2ccc(O)cc2)oc2cc(O)cc(O)c12 [KP]
IC50 [1]: 27.7 µM
Edges [2]: Irregular and poorly defined
Leukocyte infiltrate [2]: +/−
Liquid [2]: +/−
Morphology [2]: Ovoid
ALA Volume [2]: 738 ± 150 * mm^3
MRI T1 signal of ALA [2]: Intermediate intensity
MRI T2 signal of ALA [2]: hypointense
ALA Weight [2]: 0.86 ± 0.15 g
IC50 [3]: 31.6 µg/mL (≈ 110 µM)
Heart largest diameter [4]: 1.06 ± 0.08 cm
Heart weight [4]: 0.38 ± 0.1 g
Kidneys largest diameter [4]: 1.2 ± 0.1 cm
Kidneys weight [4]: 0.49 ± 0.04 g
Liver largest diameter [4]: 3.88 ± 0.11 cm
Liver weight [4]: 5.9 ± 0.8 g
Lungs largest diameter [4]: 2.5 ± 0.05 cm
Lungs weight [4]: 0.74 ± 0.06 g
Spleen largest diameter [4]: 3.7 ± 0.1 cm
Spleen weight [4]: 0.36 ± 0.05 g
actin cytoskeleton alteration [5]: disorganized actin microfilaments
biological activity symbol on IC50 CHO-K1 ([6]; 24 h, MTT): +/-
IC50 ([6]; CHO-K1, 24 h): 70 µg/mL (≈ 245 µM)
biological activity symbol on IC50 HM-1 ([7]; 48 h): +
apoptotic trophozoites [7, 12]: 8.2%
necrotic trophozoites [7, 12]: 45.2%
decrease of size and granularity of the cell population ([7]; 48 h, MTZ 0.16, KP 31.6, LL 15.6 μg/mL, vs Vh): 55%
biological activity symbol on IC50 BEAS-2B [8]: +/-
IC50 [8]: 100 µg/mL (≈ 349 µM)
Survival rate [9]: 100%
Toxicity signs [9]: None
Erythrocytes [10, 13]: 6.8 ± 0.3 x10 6/mm3
Band neutrophils ([10]; in vivo): 2 ± 1%
Basophils ([10]; in vivo): 0%
Eosinophils ([10]; in vivo): 0%
Immature forms ([10]; in vivo): 0%
Lymphocytes ([10]; in vivo): 39 ± 12%
Monocytes ([10]; in vivo): 0%
Segmented neutrophils ([10]; in vivo): 60 ± 11%
ALT (GPT) ([10]; in vivo, ip): 60 ± 10 U/L
Albumin ([10]; in vivo, ip): 1.7 ± 0.2 g/dL
Alkaline phosphatase ([10]; in vivo, ip): 349 ± 38 U/L
Cholesterol ([10]; in vivo, ip): 164 ± 43 mg/dL
Creatinine ([10]; in vivo, ip): 0.45 ± 0.1 mg/dL
Direct bilirubin ([10]; in vivo, ip): 0.37 ± 0.07 mg/dL
GGT ([10]; in vivo, ip): 9.3 ± 5.5 U/L
Glucose ([10]; in vivo, ip): 152 ± 11 mg/dL
Hematocrit ([10]; in vivo, ip): 48.8 ± 0.5%
Hemoglobin ([10]; in vivo, ip): 16.5 ± 0.2 g/dL
Indirect bilirubin ([10]; in vivo, ip): 0.01 ± 0.0 mg/dL
MCH ([10]; in vivo, ip): 24 ± 0.7 pg
MCHC ([10]; in vivo, ip): 33 ± 0.1 g/dL
MCV ([10]; in vivo, ip): 72 ± 2.3 fL
MPV ([10]; in vivo, ip): 7.25 ± 0.5 fL
PCT ([10]; in vivo, ip): 0.4 ± 0.2%
PDW ([10]; in vivo, ip): 9.15 ± 1.2 fL
Platelets ([10]; in vivo, ip): 537 ± 266 x106/μL
RDW-SD ([10]; in vivo, ip): 42.4 ± 0.3 fL
Total bilirubin ([10]; in vivo, ip): 0.38 ± 0.07 mg/dL
Total protein ([10]; in vivo, ip): 5.2 ± 0.2 g/dL
Triglycerides ([10]; in vivo, ip): 475 ± 28 mg/dL
Urea ([10]; in vivo, ip): 41.6 ± 4 mg/dL
leukocytes (mild leukocytosis) ([10]; in vivo, ip): 14,800 ± 700 /mm^3

Cc1ncc([N+](=O)[O-])n1CCO [MTZ, metronidazole, reference compound]
Edges [2]: Regular and well defined
Leukocyte infiltrate [2]: −
Liquid [2]: −
Morphology [2]: Round
ALA Volume [2]: 528 ± 183.5 * mm^3
MRI T1 signal of ALA [2]: Intermediate intensity
MRI T2 signal of ALA [2]: hypointense
ALA Weight [2]: 0.33 ± 0.32 g
IC50 [3]: 0.16 µg/mL (≈ 0.935 µM)
Heart largest diameter [4]: 1.08 ± 0.04 cm
Heart weight [4]: 0.38 ± 0.1 g
Kidneys largest diameter [4]: 1.3 ± 0.08 cm
Kidneys weight [4]: 0.52 ± 0.0 g
Liver largest diameter [4]: 4 ± 0.15 cm
Liver weight [4]: 5.76 ± 1.4 g
Lungs largest diameter [4]: 2.5 ± 0.2 cm
Lungs weight [4]: 0.68 ± 0.05 g
Spleen largest diameter [4]: 3.3 ± 0.3 cm
Spleen weight [4]: 0.2 ± 0.05 g
biological activity symbol on IC50 CHO-K1 ([6]; 24 h, MTT): -
IC50 ([6]; CHO-K1, 24 h, MTT): 500 µg/mL (≈ 2920 µM)
LD50 (Theoretical) [11]: 1026 mg/kg
apoptotic trophozoites [7]: 2%
decrease of size and granularity of the cell population [7]: 52%
necrotic trophozoites [7]: 62.2%
biological activity symbol on IC50 HM-1 ([7]; 48 h): ++
biological activity symbol on IC50 BEAS-2B [8]: -
IC50 [8]: 400 µg/mL (≈ 2340 µM)
Survival rate [9]: 100%
Toxicity signs [9]: None
MPV [10, 13]: 8 ± 0.1 fL
TB/AL ratio ([10]; drug toxicity ratio): 0.38 ± 0.16
neutrophil/lymphocyte ratio ([10]; hematic ratio): 1.15 ± 0.7
Band neutrophils ([10]; in vivo): 0%
Basophils ([10]; in vivo): 0%
Eosinophils ([10]; in vivo): 0%
Immature forms ([10]; in vivo): 0%
Lymphocytes ([10]; in vivo): 50 ± 13%
Monocytes ([10]; in vivo): 0%
Segmented neutrophils ([10]; in vivo): 51 ± 13%
ALT (GPT) ([10]; in vivo, ip): 135 ± 23 U/L
AST (GOT) ([10]; in vivo, ip): 81 ± 24 U/L
Albumin ([10]; in vivo, ip): 1.9 ± 0.3 g/dL
Alkaline phosphatase ([10]; in vivo, ip): 230 ± 11 U/L
Cholesterol ([10]; in vivo, ip): 116 ± 9.1 mg/dL
Creatinine ([10]; in vivo, ip): 1.01 ± 0.2 mg/dL
Direct bilirubin ([10]; in vivo, ip): 0.5 ± 0.1 mg/dL
Erythrocytes ([10]; in vivo, ip): 3.7 ± 0.2 x10 6/mm3
GGT ([10]; in vivo, ip): 5.5 ± 2.3 U/L
Glucose ([10]; in vivo, ip): 161 ± 21 mg/dL
Hematocrit ([10]; in vivo, ip): 35 ± 2.6%
Hemoglobin ([10]; in vivo, ip): 14. 7 ± 1.2 g/dL
Indirect bilirubin ([10]; in vivo, ip): 0.20 ± 0.1 mg/dL
Leukocytes ([10]; in vivo, ip): 7.7 ± 2.6 x100/mm3
MCH ([10]; in vivo, ip): 40 ± 1.6 pg
MCHC ([10]; in vivo, ip): 43 ± 1.4 g/dL
MCV ([10]; in vivo, ip): 94 ± 2.2 fL
PCT ([10]; in vivo, ip): 0.4 ± 0.1%
PDW ([10]; in vivo, ip): 11 ± 0.4 fL
Platelets ([10]; in vivo, ip): 536 ± 148 x106/μL
RDW-CV ([10]; in vivo, ip): 25.8 ± 3.3 fL
RDW-SD ([10]; in vivo, ip): 111 ± 12 fL
Total bilirubin ([10]; in vivo, ip): 0.7 ± 0.3 mg/dL
Total protein ([10]; in vivo, ip): 5.3 ± 0.9 g/dL
Triglycerides ([10]; in vivo, ip): 280 ± 75 mg/dL
Urea ([10]; in vivo, ip): 41.2 ± 1.4 mg/dL
BUN/CR ratio ([10]; kidney damage ratio): 19.6 ± 3.8
urea/CR ratio ([10]; kidney damage ratio): 42 ± 8.15
AST/ALT ratio (De Ritis ratio) ([10]; liver injury ratio): < 1
